Measurements reported in patent US9340590B2 (priority 2011, dated 2016).
Where two headings read alike, the source gives them in different places. Positions of bridges follow the written chain, without caps; N, C: chain ends. Non-standard residues stand in square brackets, D forms with d. Residues, ends and D or L forms follow the SMILES beside them. Phe(4-COOH) = N[C@@H](Cc1ccc(C(=O)O)cc1)C(=O)O; Orn = NCCC[C@H](N)C(=O)O; Abu = CC[C@H](N)C(=O)O

Tests used:
Assay in all cases: cell-based
hNav1.7 = hNav1.7 (Homo sapiens, UniProt Q15858); assay type: cell-based; conditions: IonWorks Quattro, read-out: IWQ Use Nav1.7
Chain of hNav1.7 (Q15858 whole entry, looked up): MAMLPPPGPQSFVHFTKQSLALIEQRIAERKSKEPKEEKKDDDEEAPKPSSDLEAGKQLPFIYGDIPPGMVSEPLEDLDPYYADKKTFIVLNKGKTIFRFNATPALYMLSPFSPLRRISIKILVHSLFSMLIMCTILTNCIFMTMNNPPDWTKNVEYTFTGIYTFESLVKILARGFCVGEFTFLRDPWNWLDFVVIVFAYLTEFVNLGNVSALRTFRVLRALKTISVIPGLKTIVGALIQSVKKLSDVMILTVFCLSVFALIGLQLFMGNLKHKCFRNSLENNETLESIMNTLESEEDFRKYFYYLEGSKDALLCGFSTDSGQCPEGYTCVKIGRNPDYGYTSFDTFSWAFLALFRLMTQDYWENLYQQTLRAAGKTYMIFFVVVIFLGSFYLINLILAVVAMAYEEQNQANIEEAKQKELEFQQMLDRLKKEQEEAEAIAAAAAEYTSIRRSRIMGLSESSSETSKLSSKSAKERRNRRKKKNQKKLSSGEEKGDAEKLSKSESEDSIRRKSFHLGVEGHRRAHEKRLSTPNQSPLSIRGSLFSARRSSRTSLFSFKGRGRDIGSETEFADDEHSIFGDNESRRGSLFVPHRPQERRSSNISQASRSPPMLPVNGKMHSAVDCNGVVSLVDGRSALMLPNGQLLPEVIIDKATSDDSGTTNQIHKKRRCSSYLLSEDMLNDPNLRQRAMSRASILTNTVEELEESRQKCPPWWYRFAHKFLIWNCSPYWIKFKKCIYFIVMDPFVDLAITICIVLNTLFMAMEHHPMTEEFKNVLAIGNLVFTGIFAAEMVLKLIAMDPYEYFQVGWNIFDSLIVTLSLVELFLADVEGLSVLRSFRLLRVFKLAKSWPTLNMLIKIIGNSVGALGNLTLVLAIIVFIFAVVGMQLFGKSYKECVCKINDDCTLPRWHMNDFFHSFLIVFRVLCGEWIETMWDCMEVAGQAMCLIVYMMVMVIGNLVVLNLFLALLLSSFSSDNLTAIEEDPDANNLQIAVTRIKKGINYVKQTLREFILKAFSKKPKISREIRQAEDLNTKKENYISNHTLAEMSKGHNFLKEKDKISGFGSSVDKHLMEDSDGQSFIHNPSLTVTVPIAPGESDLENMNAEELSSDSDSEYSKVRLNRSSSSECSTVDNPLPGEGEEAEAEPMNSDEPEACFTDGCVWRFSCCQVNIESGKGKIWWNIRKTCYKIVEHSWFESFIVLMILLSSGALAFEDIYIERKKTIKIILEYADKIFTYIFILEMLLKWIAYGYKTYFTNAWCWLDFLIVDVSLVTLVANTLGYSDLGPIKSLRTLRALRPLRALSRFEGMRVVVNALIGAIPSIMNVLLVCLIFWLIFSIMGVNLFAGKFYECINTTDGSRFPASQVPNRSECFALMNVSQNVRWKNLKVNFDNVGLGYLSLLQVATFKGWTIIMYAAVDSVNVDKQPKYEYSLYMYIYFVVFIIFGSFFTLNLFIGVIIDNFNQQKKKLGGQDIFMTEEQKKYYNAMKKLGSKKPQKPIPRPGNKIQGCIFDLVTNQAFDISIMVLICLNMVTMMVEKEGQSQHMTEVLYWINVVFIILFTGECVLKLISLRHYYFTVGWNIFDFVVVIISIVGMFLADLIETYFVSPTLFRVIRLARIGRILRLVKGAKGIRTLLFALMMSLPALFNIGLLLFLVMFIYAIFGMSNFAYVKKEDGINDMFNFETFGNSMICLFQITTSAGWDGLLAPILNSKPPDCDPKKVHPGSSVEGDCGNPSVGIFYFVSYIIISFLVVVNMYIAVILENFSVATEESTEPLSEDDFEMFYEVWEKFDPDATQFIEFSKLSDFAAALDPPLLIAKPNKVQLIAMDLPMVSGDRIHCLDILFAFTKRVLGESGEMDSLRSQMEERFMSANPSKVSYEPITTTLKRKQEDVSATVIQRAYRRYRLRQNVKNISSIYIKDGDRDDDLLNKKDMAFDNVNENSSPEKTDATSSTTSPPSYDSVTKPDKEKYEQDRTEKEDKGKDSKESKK

hNav1.5 = hNav1.5 (Homo sapiens, UniProt Q14524); conditions: IonWorks Quattro, read-out: IWQ Use Nav1.5
Chain of hNav1.5 (Q14524 whole entry, looked up): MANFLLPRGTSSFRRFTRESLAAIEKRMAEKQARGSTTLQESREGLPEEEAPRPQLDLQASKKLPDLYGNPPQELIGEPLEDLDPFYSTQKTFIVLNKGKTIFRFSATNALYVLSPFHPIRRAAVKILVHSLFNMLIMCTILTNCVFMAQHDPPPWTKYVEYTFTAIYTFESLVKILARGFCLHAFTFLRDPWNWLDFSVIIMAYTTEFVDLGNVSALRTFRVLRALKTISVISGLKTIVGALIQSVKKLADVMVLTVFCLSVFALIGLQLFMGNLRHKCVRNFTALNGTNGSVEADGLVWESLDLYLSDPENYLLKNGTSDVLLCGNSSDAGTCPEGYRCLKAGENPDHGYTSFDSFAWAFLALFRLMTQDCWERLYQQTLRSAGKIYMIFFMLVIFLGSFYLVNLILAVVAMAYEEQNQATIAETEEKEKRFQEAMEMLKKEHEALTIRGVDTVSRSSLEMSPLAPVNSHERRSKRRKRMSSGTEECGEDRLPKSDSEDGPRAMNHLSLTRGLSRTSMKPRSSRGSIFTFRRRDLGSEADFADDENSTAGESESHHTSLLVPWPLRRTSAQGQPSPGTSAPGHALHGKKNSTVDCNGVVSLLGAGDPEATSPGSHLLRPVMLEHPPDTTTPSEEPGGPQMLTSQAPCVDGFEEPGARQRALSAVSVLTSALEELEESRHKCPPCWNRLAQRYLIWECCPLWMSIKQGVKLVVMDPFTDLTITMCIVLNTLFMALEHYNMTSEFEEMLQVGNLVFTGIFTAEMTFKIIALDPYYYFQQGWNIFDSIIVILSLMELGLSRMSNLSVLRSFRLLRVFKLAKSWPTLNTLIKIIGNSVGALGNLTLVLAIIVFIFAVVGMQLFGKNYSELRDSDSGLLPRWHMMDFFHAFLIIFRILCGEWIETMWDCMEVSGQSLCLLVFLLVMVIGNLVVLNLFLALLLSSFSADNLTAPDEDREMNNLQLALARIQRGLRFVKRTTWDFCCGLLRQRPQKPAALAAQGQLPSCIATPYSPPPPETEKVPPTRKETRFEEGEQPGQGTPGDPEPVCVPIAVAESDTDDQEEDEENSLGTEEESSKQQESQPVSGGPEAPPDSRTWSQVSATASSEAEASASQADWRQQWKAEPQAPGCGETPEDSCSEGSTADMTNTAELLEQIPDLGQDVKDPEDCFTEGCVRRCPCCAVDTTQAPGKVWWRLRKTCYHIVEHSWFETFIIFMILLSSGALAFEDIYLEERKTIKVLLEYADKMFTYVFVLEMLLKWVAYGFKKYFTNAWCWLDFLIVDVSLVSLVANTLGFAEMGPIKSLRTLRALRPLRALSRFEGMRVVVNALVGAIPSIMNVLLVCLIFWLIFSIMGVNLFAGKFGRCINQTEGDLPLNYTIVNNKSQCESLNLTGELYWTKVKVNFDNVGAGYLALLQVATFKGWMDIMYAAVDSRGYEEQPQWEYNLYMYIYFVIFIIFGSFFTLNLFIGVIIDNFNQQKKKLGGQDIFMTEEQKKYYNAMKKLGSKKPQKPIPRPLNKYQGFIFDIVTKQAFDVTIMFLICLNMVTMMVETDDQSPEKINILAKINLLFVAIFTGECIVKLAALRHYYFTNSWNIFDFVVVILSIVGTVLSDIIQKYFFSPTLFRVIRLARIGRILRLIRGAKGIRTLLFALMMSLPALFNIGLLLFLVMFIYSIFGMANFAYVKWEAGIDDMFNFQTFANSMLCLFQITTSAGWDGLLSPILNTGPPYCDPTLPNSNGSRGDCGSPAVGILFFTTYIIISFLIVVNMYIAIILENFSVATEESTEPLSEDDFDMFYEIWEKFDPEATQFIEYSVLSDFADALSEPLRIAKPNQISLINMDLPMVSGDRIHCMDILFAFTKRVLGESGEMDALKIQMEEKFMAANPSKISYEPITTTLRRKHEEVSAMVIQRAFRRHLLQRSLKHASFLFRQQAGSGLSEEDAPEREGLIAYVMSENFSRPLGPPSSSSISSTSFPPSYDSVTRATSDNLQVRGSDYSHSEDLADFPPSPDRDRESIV

hNav1.3 = hNav1.3 (Homo sapiens, UniProt Q9NY46); conditions: IonWorks Quattro, read-out: IWQ Use Nav1.3

| Compound | IC50 (hNav1.7; use-dependent block, hNav1.7) [µM] | IC50 (hNav1.5; use-dependent block, hNav1.5) [µM] | IC50 (hNav1.3; use-dependent block, hNav1.3) [µM] | IC50 (hNav1.7; Use) [µM] | IC50 (hNav1.5; Use) [µM] | IC50 (hNav1.3; Use) [µM] | also measured |
| --- | --- | --- | --- | --- | --- | --- | --- |
| CC[C@H](C)[C@@H]1NC(=O)[C@@H]2CSSC[C@@H]3NC(=O)[C@H](C(C)C)NC(=O)[C@H](CC(C)C)NC(=O)[C@H](CC(N)=O)NC(=O)[C@@H]4CCCN4C(=O)[C@H](CCCNC(=N)N)NC(=O)[C@H](CSSC[C@H](NC(=O)[C@@H](N)CC(=O)O)C(=O)N[C@@H](CC(C)C)C(=O)NCC(=O)N[C@@H](C)C(=O)N[C@@H](CC(C)C)C(=O)N[C@@H](CCCNC(=N)N)C(=O)N[C@@H](CCCCN)C(=O)N2)NC(=O)[C@H](CSSC[C@@H](C(=O)N[C@@H](CCCCN)C(=O)N[C@@H](Cc2ccc(O)cc2)C(=O)N[C@H](C(=O)N[C@@H](Cc2ccccc2)C(=O)O)C(C)C)NC(=O)[C@H](Cc2c[nH]c4ccccc24)NC(=O)[C@H](CCCNC(=N)N)NC(=O)[C@H](Cc2c[nH]cn2)NC(=O)[C@H]([C@@H](C)O)NC(=O)[C@H](CCCNC(=N)N)NC(=O)[C@H](CO)NC3=O)NC(=O)[C@H](CCCCN)NC(=O)[C@H](CC(=O)O)NC(=O)[C@H](Cc2ccc(O)cc2)NC(=O)[C@H](CC(=O)O)NC(=O)[C@@H]2CCCN2C1=O [compound 873] (H-DCLGALRKCIPDYDKCCRPNLVCSRTHRWCKYVF-OH; disulfide 2-17, 9-23, 16-30) | 4.8 | > 5 | > 5 |  |  |  |  |
| CC[C@H](C)[C@@H]1NC(=O)[C@@H]2CSSC[C@@H]3NC(=O)[C@H](CCSC)NC(=O)[C@H](CC(C)C)NC(=O)[C@H](CC(N)=O)NC(=O)[C@@H]4CCCN4C(=O)[C@H](CCCNC(=N)N)NC(=O)[C@H](CSSC[C@H](NC(=O)[C@@H](N)CC(=O)O)C(=O)N[C@@H](CC(C)C)C(=O)NCC(=O)N[C@@H](Cc4ccccc4)C(=O)N[C@@H](CCSC)C(=O)N[C@@H](CCCNC(=N)N)C(=O)N[C@@H](CCCCN)C(=O)N2)NC(=O)[C@H](CSSC[C@@H](C(=O)N[C@@H](CCCCN)C(=O)N[C@@H](Cc2ccc(O)cc2)C(=O)N[C@H](C(=O)N[C@@H](Cc2ccccc2)C(N)=O)C(C)C)NC(=O)[C@H](Cc2c[nH]c4ccccc24)NC(=O)[C@H](CCCCN)NC(=O)[C@H](Cc2c[nH]cn2)NC(=O)[C@H]([C@@H](C)O)NC(=O)[C@H](CCCNC(=N)N)NC(=O)[C@H](CO)NC3=O)NC(=O)[C@H](CCCCN)NC(=O)[C@H](CC(=O)O)NC(=O)[C@H](CC(N)=O)NC(=O)[C@H](CC(=O)O)NC(=O)[C@@H]2CCCN2C1=O [compound 332] (H-DCLGFMRKCIPDNDKCCRPNLMCSRTHKWCKYVF-NH2; disulfide 2-17, 9-23, 16-30) |  |  |  | 0.09 | 4.61 | 0.08 |  |
| CC[C@H](C)[C@@H]1NC(=O)[C@@H]2CSSC[C@@H]3NC(=O)[C@H](C(C)C)NC(=O)[C@H](CC(C)C)NC(=O)[C@H](CC(N)=O)NC(=O)[C@@H]4CCCN4C(=O)[C@H](CCCNC(=N)N)NC(=O)[C@H](CSSC[C@H](NC(=O)[C@@H](N)CC(=O)O)C(=O)N[C@@H](CC(C)C)C(=O)NCC(=O)N[C@@H](C)C(=O)N[C@@H](CCSC)C(=O)N[C@@H](CCCNC(=N)N)C(=O)N[C@@H](CCCCN)C(=O)N2)NC(=O)[C@H](CSSC[C@@H](C(=O)N[C@@H](CCCCN)C(=O)N[C@@H](Cc2ccc(O)cc2)C(=O)N[C@H](C(=O)N[C@@H](Cc2ccccc2)C(N)=O)C(C)C)NC(=O)[C@H](Cc2c[nH]c4ccccc24)NC(=O)[C@H](CCCN)NC(=O)[C@H](Cc2c[nH]cn2)NC(=O)[C@H]([C@@H](C)O)NC(=O)[C@H](CCCNC(=N)N)NC(=O)[C@H](CO)NC3=O)NC(=O)[C@H](CCCCN)NC(=O)[C@H](CC(=O)O)NC(=O)[C@H](CC(N)=O)NC(=O)[C@H](CC(=O)O)NC(=O)[C@@H]2CCCN2C1=O [compound 746] (H-DCLGAMRKCIPDNDKCCRPNLVCSRTH[Orn]WCKYVF-NH2; disulfide 2-17, 9-23, 16-30) | 0.29 | 20.7 | 0.76 |  |  |  |  |
| CC[C@H](C)[C@@H]1NC(=O)[C@@H]2CSSC[C@@H]3NC(=O)[C@H](C(C)C)NC(=O)[C@H](CC(C)C)NC(=O)[C@H](CC(N)=O)NC(=O)[C@@H]4CCCN4C(=O)[C@H](CCCNC(=N)N)NC(=O)[C@H](CSSC[C@H](NC(=O)[C@@H](N)CC(=O)O)C(=O)N[C@@H](CC(C)C)C(=O)NCC(=O)N[C@@H](C(C)C)C(=O)N[C@@H](Cc4ccccc4)C(=O)N[C@@H](CCCNC(=N)N)C(=O)N[C@@H](CCCCN)C(=O)N2)NC(=O)[C@H](CSSC[C@@H](C(=O)N[C@@H](CCCCN)C(=O)N[C@@H](Cc2ccc(O)cc2)C(=O)N[C@H](C(=O)N[C@@H](Cc2ccccc2)C(N)=O)C(C)C)NC(=O)[C@H](Cc2c[nH]c4ccccc24)NC(=O)[C@H](CCCCN)NC(=O)[C@H](Cc2c[nH]cn2)NC(=O)[C@H]([C@@H](C)O)NC(=O)[C@H](CCCNC(=N)N)NC(=O)[C@H](CO)NC3=O)NC(=O)[C@H](CCCCN)NC(=O)[C@H](CC(=O)O)NC(=O)[C@H](CC(N)=O)NC(=O)[C@H](CC(=O)O)NC(=O)[C@@H]2CCCN2C1=O [compound 618] (H-DCLGVFRKCIPDNDKCCRPNLVCSRTHKWCKYVF-NH2; disulfide 2-17, 9-23, 16-30) |  |  |  |  |  |  | IC50 (hNav1.7; use-dependent protocol, hNav1.7): 0.12 µM; IC50 (hNav1.5; use-dependent protocol, hNav1.5): 9.4 µM; IC50 (hNav1.3; use-dependent protocol, hNav1.3): 0.099 µM |
| CC[C@@H]1NC(=O)[C@@H]2CSSC[C@@H](C(=O)N[C@@H](CCCCN)C(=O)N[C@@H](Cc3ccc(O)cc3)C(=O)N[C@H](C(=O)N[C@@H](Cc3ccccc3)C(N)=O)C(C)C)NC(=O)[C@H](Cc3c[nH]c4ccccc34)NC(=O)[C@H](CCCCN)NC(=O)[C@H](Cc3c[nH]cn3)NC(=O)[C@H]([C@@H](C)O)NC(=O)[C@H](CCCNC(=N)N)NC(=O)[C@H](CO)NC(=O)[C@H](CSSC[C@H](NC(=O)[C@H](CCCCN)NC(=O)[C@H](CCCNC(=N)N)NC(=O)[C@H](CCSC)NC(=O)[C@H](Cc3ccccc3)NC(=O)CNC(=O)[C@H](CC(C)C)NC(=O)[C@H](CC)NC(=O)[C@@H](N)CC(=O)O)C(=O)N[C@@H]([C@@H](C)CC)C(=O)N3CCC[C@H]3C(=O)N[C@@H](CC(=O)O)C(=O)N[C@@H](CC(N)=O)C(=O)N[C@@H](CC(=O)O)C(=O)N[C@@H](CCCCN)C(=O)N2)NC(=O)[C@H](C(C)C)NC(=O)[C@H](CC(C)C)NC(=O)[C@H](CC(N)=O)NC(=O)[C@@H]2CCCN2C(=O)[C@H](CCCNC(=N)N)NC1=O [SEQ ID NO: 125, [2-Abu-2,17]GpTx-1] (H-D[Abu]LGFMRKCIPDNDKC[Abu]RPNLVCSRTHKWCKYVF-NH2; disulfide 9-23, 16-30) | 0.3 | 9.51 | 0.24 |  |  |  |  |
| CC[C@H](C)[C@@H]1NC(=O)[C@@H]2CSSC[C@@H]3NC(=O)[C@H](C(C)C)NC(=O)[C@H](Cc4ccc(C(=O)O)cc4)NC(=O)[C@H](CC(N)=O)NC(=O)[C@@H]4CCCN4C(=O)[C@H](CCCNC(=N)N)NC(=O)[C@H](CSSC[C@H](NC(=O)[C@@H](N)CC(=O)O)C(=O)N[C@@H](CC(C)C)C(=O)NCC(=O)N[C@@H](Cc4ccccc4)C(=O)N[C@@H](CCSC)C(=O)N[C@@H](CCCNC(=N)N)C(=O)N[C@@H](CCCCN)C(=O)N2)NC(=O)[C@H](CSSC[C@@H](C(=O)N[C@@H](CCCCN)C(=O)N[C@@H](Cc2ccc(O)cc2)C(=O)N[C@H](C(=O)N[C@@H](Cc2ccccc2)C(N)=O)C(C)C)NC(=O)[C@H](Cc2c[nH]c4ccccc24)NC(=O)[C@H](CCCCN)NC(=O)[C@H](Cc2c[nH]cn2)NC(=O)[C@H]([C@@H](C)O)NC(=O)[C@H](CCCNC(=N)N)NC(=O)[C@H](CO)NC3=O)NC(=O)[C@H](CCCCN)NC(=O)[C@H](CC(=O)O)NC(=O)[C@H](CC(N)=O)NC(=O)[C@H](CC(=O)O)NC(=O)[C@@H]2CCCN2C1=O [compound 317] (H-DCLGFMRKCIPDNDKCCRPN[Phe(4-COOH)]VCSRTHKWCKYVF-NH2; disulfide 2-17, 9-23, 16-30) |  |  |  | 3.98 | 8.9 | 3.67 |  |
